Assays:
[1] = test system: metastatic castration-resistant prostate cancer (mCRPC); assay: COU-AA-302 Phase 3 study: Cox regression association of tumor mRNA biomarker expression with rPFS/OS within the AA group; type: in vivo, human
Text: (§1) COU-AA-302 is a Phase 3, multinational, randomized, double-blind, placebo-controlled study comparing the efficacy and safety of AA and prednisone (AA+P) to placebo and prednisone (Placebo+P) in medically or surgically castrated asymptomatic or mildly symptomatic men with mCRPC who have not received cytotoxic chemotherapy. Patients were assigned in a 1:1 ratio to receive either AA+P or Placebo+P and were stratified based on ECOG performance status of 0 or 1, as discussed in Clinical Study Protocol: A Phase 3 Randomized, Double-blind, Placebo-controlled Study of Abiraterone Acetate (CB7630) Plus Prednisone in Asymptomatic or Mildly Symptomatic Subjects with Metastatic Castration Resistant Prostate Cancer. Protocol COU-AA-302; EudraCT No. 2008-008004-41; 9 Jul. 2012.
(§2) All subjects in Study COU-AA-302, regardless of treatment group, received concurrent prednisone. See Clinical Study Report: CSR COU-AA-302 2012. A Phase 3, Randomized, Double-Blind, Placebo-Controlled Study of Abiraterone Acetate Plus Prednisone in Asymptomatic or Mildly Symptomatic Subjects With Metastatic Castration-Resistant Prostate Cancer. Issue Date: 26 Oct. 2012. Subjects who received AA+P are referred to herein as the “AA group” and in tables as “AA.” Subjects who received Placebo+P are referred to herein as the “Placebo group” and in tables as “Placebo.” Additional study related details can be obtained from the COU-AA-302 clinical study protocol or clinical study report.
Formalin fixed paraffin embedded (FFPE) tumor samples from 258 subjects who optionally consented for RNA analysis were collected and shipped to the central laboratory (Covance, Ind.) for RNA analysis. FFPE samples from 152 subjects had sufficient RNA for TaqMan® Low Density Array (TLDA) analysis. Samples from the other 106 subjects were excluded either due to lack of tumor or low RNA yield. Of the 152 samples evaluated by TLDA, samples from 42 subjects were excluded from data analysis due to technical failures (no detectable gene expression or batch effects induced by microdissection of samples with low tumor content or low RNA input mass [<250 ng of total RNA]). The remaining evaluable samples from 110 subjects (Biomarker population) who were part of the ITT population (10%) and who had drug exposure with clinical data for at least one of the efficacy endpoints (rPFS, OS) were included in the analysis. Samples from these subjects were included in the mRNA analysis using the TaqMan® array microfluidic cards.
Raw CT values were filtered to remove values greater than 30. Quadruple replicate CT values were summarized using the geometric mean. Expression values were calculated using the comparative CT method as described in Schmittgen T D, Livak K J. Analyzing real-time PCR data by the comparative Ct method. Nature Protocols. 2008; 3:1101-1108. Briefly, a normalization factor was calculated for each sample using the geometric mean of housekeeping genes (ACTB and GAPDH). Relative expression values of all other transcripts were quantified as the difference between CT and the normalization factor. Transcript expression was calculated by the negation of the relative expression values to account for the inverse relationship between expression and CT. This is equivalent to the log 2 transform of 2^(-DeltaCT).
All statistical tests were interpreted at 5% significance levels (two-sided). For determination of specificity of biomarker association with clinical endpoints in AA group, a P<0.05 in the AA group and a P≥0.2 in the placebo group is required. Demographics and baseline characteristics were compared between the biomarker population and the ITT population using ANOVA (continuous variables) or Chi-Square (categorical variables) tests. […]

[2] = test system: metastatic castration-resistant prostate cancer (mCRPC); assay: COU-AA-302: multivariate biomarker panel classifier (low/high risk) versus radiographic progression free survival, independent test set; type: in vivo, human; conditions: test set (AA group), multivariate panel cutpoint 0.9977
Text: as §1, §2
A multivariate biomarker panel was identified using penalized regression to define a classifier that predicts radiographic progression free survival. The model was defined using an elastic net approach for feature selection and model specification. Data was separated into training and testing sets using a 70%-30% split. Within the training data, 10-fold cross-validation was used to define model parameters. Elastic net models have two parameters: alpha and lambda. Alpha is the elastic net penalty and determines the specific mixture of penalties that will be applied to limit complexity of the model. Lambda is the regularization penalty which determines the magnitude of the parameter used to limit complexity. After optimizing alpha and lambda using cross-validation, the values were used to define the cox regression model on the training data. The model is used to predict the relative risk of progression free-survival for all subjects in the training set. Then, time-dependent ROC analysis was used to determine the predictive power of the model and dichotomize the relative risk into two groups associated with low and high risk at the timepoint at which 90% of subjects with radiographic progression had observed recurrence of disease (t=20.48 months). This model, consisting of regression coefficients, timepoint and cutoff to discriminate between low and high risk, was applied to predict the relative risk of subjects in the independent test data and evaluate the predictive power and association with time to event of the classifier. This evaluation is repeated on the placebo data to confirm that the classifier is predictive of response to Abiraterone and not prognostic of outcome independent of treatment. Features used in the model building process included all single gene markers detected in greater than 50% of samples to exclude low expressing genes. The model was optimized to alpha=0.5 and lambda=0.209. Using these parameters, the optimized survival models were defined as described in Table 6.
Table 7 lists the predictive metrics which describe the performance of these models on the independent test and placebo group data.
Table 8 lists the statistics describing the association between classifier predictions and time to radiographic progression free survival.

[3] = AA group (AA+prednisone), Cox regression with baseline ECOG, continuous log2 expression, (95% CI)
[4] = AA group, Cox regression with baseline ECOG, (95% CI)
[5] = AA group, multivariate Cox regression model

SMILES: CC(=O)O[C@H]1CC[C@@]2(C)C(=CC[C@@H]3[C@@H]2CC[C@]2(C)C(c4cccnc4)=CC[C@@H]32)C1 [AA, abiraterone acetate]
- HR, association of ANLN expression with rPFS (IND) [1, 3]: 0.84 (0.72, 0.96)
- HR, association of ANLN expression with rPFS (INV) [1, 3]: 0.80 (0.69, 0.93)
- reduction of the hazard of rPFS event per unit increase in relative expression of ANLN ([1]; AA group, 1-0.84, unit = 2-fold difference relative to reference gene): 16%
- HR, association of CYP17A1 and cofactors group composite score with OS ([1]; AA group, Cox regression): 0.20
- HR, association of androgen controlled group composite score with OS ([1]; AA group, Cox regression): 0.31
- HR, association of proliferation pathway module with rPFS (INV) ([1]; AA group, Cox regression): 0.63
- HR, association of CYP17A1 and cofactors group composite score with rPFS (INV) [1, 4]: 0.71 (0.37, 1.36)
- HR, association of HSD17B10 expression with rPFS (IND) [1, 4]: 0.78 (0.62, 0.98)
- HR, association of HSD17B10 expression with rPFS (INV) [1, 4]: 0.76 (0.62, 0.94)
- HR, association of NUSAP1 expression with rPFS (IND) [1, 4]: 0.82 (0.67, 1.00)
- HR, association of NUSAP1 expression with rPFS (INV) [1, 4]: 0.78 (0.64, 0.95)
- HR, association of SRD5A1 expression with rPFS (IND) [1, 4]: 0.80 (0.65, 0.98)
- HR, association of SRD5A1 expression with rPFS (INV) [1, 4]: 0.83 (0.68, 1.00)
- HR, association of UBE2C expression with rPFS (IND) [1, 4]: 0.85 (0.74, 0.98)
- HR, association of UBE2C expression with rPFS (INV) [1, 4]: 0.81 (0.71, 0.93)
- HR, association of ANLN expression with rPFS (IND), corrected for RNA extraction methodology [1, 5]: 0.86
- HR, association of HSD17B10 expression with rPFS (IND), corrected for RNA extraction methodology [1, 5]: 0.78
- HR, association of NUSAP1 expression with rPFS (IND), corrected for RNA extraction methodology [1, 5]: 0.78
- HR, association of SRD5A1 expression with rPFS (IND), corrected for RNA extraction methodology [1, 5]: 0.79
- HR, association of UBE2C expression with rPFS (IND), corrected for RNA extraction methodology ([1]; AA group, multivariate Cox regression model, trend of association): 0.88
- HR, High versus Low risk, time to radiographic progression free survival ([2]; 95CI in next cell): 6.25
- Median time to radiographic progression free survival, High risk ([2]; 95CI in next cell): 8.2
- Event/Total (Perc), rPFS, High risk ([2]; percentage of events): (100.0)
- Event/Total (Perc), rPFS, Low risk ([2]; percentage of events): (40.0)
- Event/Total, rPFS, High risk ([2]; timepoint 20.4813): 4/4
- Event/Total, rPFS, Low risk ([2]; timepoint 20.4813): 6/15
